These results are taken from patent US12661362B2, “Methods for the prevention and treatment of hearing loss” (Ting Therapeutics LLC, priority 2020, dated 2026).

For series [1], the system named is A549. Kind of series: Survival of A549 cells with or without Cisplatin and Niclosamide. The format is cell-based. To be noted: 10 nM. The protocol: Now referring to FIG. 8, In vitro model of […] incubated with or without Cisplatin and 10 nM of Niclosamide. Cells were maintained in culture with the aid of Matrigel as previously described in Kelley and Driver, Curr. Protoc. Neurosci. Ch.(4); Unit(4); 34.1-10 (2010). After cells had been in culture for 1 d, growth medium DMEM (12430-054; GIB CO Life Technologies, with 1% FBS [16000-044; GIB CO Life Technologies] and 50 μg/ml ampicillin) with or without test compounds may be added for preincubation for 1 hr. at 37° C. in 5% Co2, and may be followed by incubation with 50 μM Cisplatin (479306; Sigma-Aldrich) with or without the test compound in growth medium for 24 hr. at 37° C. A Cisplatin concentration of 50 μM may be used for the explant assay due to its consistent showing of decreases outer hair cells by about −40% in the mouse cochlea after 24 hours. Cochlea may be fixed in 4% PFA and stained for actin with Alex Fluor 568 phalloidin to determine the viability of the HCs. Cochlea may also be stained by DAPI, FM1-43 dye uptake, and immunohistochemical staining for known HC markers (including parvalbumin and myosin 7a. Cochlea may be imaged by confocal microscopy. Two 160-μm regions from middle turns may be photographed, and the number of intact HCs can be counted.

The subject of series [2] is zebrafish neuromast HCs. In words: NMDA excitotoxicity in zebrafish neuromast hair cells. The format is in vivo. The note with it: 2 nM and 18 nM; 300 μM NMDA. The protocol:
Now referring to FIGS. […], representative samples of the mouse HCs at 32 kHz, the most protected frequency region shown by ABR measurement (FIG. 4E). […] Niclosamide protects NMDA-induced hair cell loss in zebrafish. Application of the N-methyl-d-aspartate (NMDA) to zebrafish neuromast HCs has also been used to mimic glutamate excitotoxicity associated with noise exposure (Katie S. Kindt and Lavinia Sheets, 2018). The results of the HC count following exposure of zebrafish to 300 μM NMDA led to hair-cell loss.
Now referring to FIGS. 5A-5F Niclosamide had protective effects on NIHL in Zebrafish and FVB/NJ mice in vivo. CIHL and NIHL share mechanistic commonalities. Now referring to FIG. 5A, to test whether Niclosamide protects HCs from excitotoxic trauma, a zebrafish model that mimics noise damage was employed, Zebrafish were exposed to the ionotropic glutamate receptor agonist, N-methyl-D-aspartate (NMDA), previously shown to cause progressive HC loss in zebrafish lateral-line organs (Sheets, 2017) with or without niclosamide. 5-dpf larvae were preincubated with 300 μM NMDA for 50 min followed by 2 hours incubation with niclosamide at 2 nM and 18.3 nM.

Series [3] has as its system FVB/NJ mice. In words: Safety monitoring of drugs IP in FVB/NJ mice, with or without Cisplatin. The format is in vivo, mouse. How it is done: To investigate the drugs' effects on mammalian auditory function in vivo, we first treated 5-7 weeks old FVB/NJ mice with […] drug candidates: Niclosamide (10 mg/kg/day), Ingenol (0.3 mg/kg/day), Elesclomol (5 mg/kg/day), for 4 consecutive days (IP) to monitor safety of the drugs. All tested doses were determined based on previous published data showing maximum non-toxic dose through intraperitoneal (IP) injection.
Baseline auditory brainstem response (ABR) were measured on 16 mice divided in 3 groups receiving Ingenol, Elesclomol, and Niclosamide. The mice received the drug doses described above, then on day 2 of drug injection mice also received 30 mg/kg Cisplatin (IP; 4 mice per group).

In series [4] the test system is Nrf2. In words: nrf2a morpholino knock-down zebrafish exposed to cisplatin and niclosamide. The format is in vivo. To be noted: non-injected and scrambled control zebrafish; 18.3 nM, cisplatin 300 μM. How it is done: Additionally to FIGS. 6A-6B, but not shown, 5 dpf zebrafish were incubated for 6 hours with vehicle, niclosamide (2 nM to 1.48 μM) and the nrf2 pathway activator […] (DEM) as a positive control, in order to evaluate the effect of niclosamide on ggcsh, a nrf2 downstream target. Ggcsh was previously validated as a Nrf2 downstream target in zebrafish. (Sheets, 2017). Following incubation, the total RNA was isolated from whole fish and processed to measure the induced expression of nrf2 downstream gene ggcsh. […] Additionally, Nrf2a morpholinos morphlinos were prepared, followed by incubation of the zebrafish morphants with cisplatin and/or niclosamide. Zebrafish eggs were injected with 4.5 ng of scrambled morpholino or nrf2a morpholino (5′-[…] SEQ NO: 1). At 3 dpf non-injected and morphant animals were exposed to vehicle, cisplatin (300 μM), cisplatin+niclosamide 18.3 nM or niclosamide alone for 6 hours. Following 1-hour recovery, animals were fixed and processed for immunohistochemistry. Nrf2a KD was confirmed by analyzing expression of Glutathione S-transferase P1 (gstp1), a downstream target, due to lack of proper antibody to detect Nrf2 protein in zebrafish.

Series [5] is described as follows: HPLC analysis of interaction between Niclosamide and Cisplatin in vitro. The format is physicochemical. To be noted: ratios 1:1 and 1:10, 37° C. How it is done:
A simple explanation of Niclosamide's protection against CIHL is that it directly inactivates Cisplatin, similar to several otoprotectants in clinical trials (STS, ebselen, etc.). To investigate any possible interaction between Niclosamide and Cisplatin, we developed an HPLC method in vitro. The method may use the following: HPLC: Shimadzu Prominence-i LC-2030C, column: Agilent Eclipse Plus C18, PN-959961-902, 5% ACN, 95% water: 0-2 min; continuous increase of ACN to 95%: 2-12 min; hold at 95% ACN: 12-17 min; continuous decrease of ACN to 5%: 17-20 min, flow rate: 1 mL/min; Temperature 37° C., run time: 20 min. Additional parts of the method may use a stock solution of 1 mg/ml prepared in suitable solvent and mixed to create a ratio of cisplatin and niclosamide at 1:1 and 1:10 in the final injecting solution, along with the pure cisplatin and niclosamide. […] Our in vitro results are consistent with its synergistic interaction with Cisplatin in RCC xenograft models and its protection against noise injury.

Setting [6] is: 20 mg/kg/day IP, 4 consecutive days.

On to `O=C(Nc1ccc([N+](=O)[O-])cc1Cl)c1cc(Cl)ccc1O` [Niclosamide, 5-chloro-N-(2-chloro-4-nitrophenyl)-2-hydroxy-benzamide], for which the “effect on Cisplatin-tumor killing activity” value in series [1] was “did not affect Cisplatin-tumor killing activity”. For the same compound, the “HC survival after NMDA” value in series [2] is listed as “significantly increased HC survival”. In addition, in series [3] (setting [6]), the clinical signs entry is “sign of pain and distress including mouse hunch”; the weight loss was 20-30%. The “weight loss, pain and distress” value in series [3] (Niclosamide 10, Ingenol 0.3, Elesclomol 5 mg/kg/day IP, 4 consecutive days) is “None of the mice showed reduced weight loss or signs of pain and distress”. Further, the “general toxicity versus Cisplatin alone” value in series [3] (combination with Cisplatin 30 mg/kg single injection) is “no general toxicity”. For the same compound, the weight loss entry in series [3] (drug IP daily plus 30 mg/kg Cisplatin IP on day 2) is “less than 10%”. Further, the “weight loss or abnormal behavior” value in series [3] (maximum IP doses approved by IACUC) is “no weight loss or abnormal behavior”. The survival result in series [3] (plus 30 mg/kg Cisplatin, through day 5 post-Cisplatin injection) was “all survived”. In addition, the “hair cell number after cotreatment with cisplatin” value in series [4] is “significantly higher hair cell number”. In addition, the “chemical interaction with Cisplatin (third HPLC peak)” value in series [5] was “no interaction between Niclosamide and Cisplatin”.
